The values that follow come from patent US10130096B2, “Method for protecting useful plants or plant propagation material” (SYNGENTA PARTICIPATIONS AG, priority 2011, dated 2018).

In test [1] the test system is Pythium ultimum. As to the kind of experiment: Example B-5: seed treatment against Pythium ultimum on cotton. As to conditions: Globisporangium ultimum, rate of 200 g/100 kg seeds, infested soil, number of germinated, healthy plants. The class given is in vivo. The method, then: The trial is kept for 1 week in a growth room at 20° C. and darkness. After this period the trial is transferred to a greenhouse where a temperature of 21° C. and a 14 h light period is provided until the trial is finished. The following assessments are made: number of germinated, healthy plants. Each number is determined for 150 seeds per treatment (3 replicates a 50 seeds).

In test [2] the test system is Pythium ultimum. As to the kind of experiment: Pythium ultimum liquid culture growth inhibition. The format is cell-based. The settings on record: Globisporangium ultimum, photometric, 2-3 days after application, read-out: control on Pythium ultimum. The method, then:
Mycelia fragments and oospores of a newly grown liquid culture of the fungus are directly mixed into nutrient broth (PDB potato dextrose broth). After placing a (DMSO) solution of test compound into a microtiter plate (96-well format), the nutrient broth containing the fungal mycelia/spore mixture is added.

Test [3] concerns Glomerella lagenarium (Colletotrichum lagenarium). As to the kind of experiment: Glomerella lagenarium liquid culture growth inhibition. The class given is cell-based. As to conditions: Colletotrichum orbiculare, photometric, 3-4 days after application, read-out: control on Glomerella lagenarium. The method, then:
(§1) Conidia of the fungus from cryogenic storage are directly mixed into nutrient broth (PDB potato dextrose broth). After placing a (DMSO) solution of test compound into a microtiter plate (96-well format), the nutrient broth containing the fungal spores is added.

The test system of test [4] is Monographella nivalis (Microdochium nivale). The experiment in a line: Monographella nivalis liquid culture growth inhibition. The class given is cell-based. As to conditions: photometric, 4-5 days after application, read-out: control on Monographella nivalis. The method, then: Conidia of the fungus from cryogenic storage are directly mixed into nutrient broth (PDB potato dextrose broth). After placing a (DMSO) solution of test compound into a microtiter plate (96-well format), the nutrient broth containing the fungal spores is added. The test plates are incubated at 24° C. and the inhibition of growth is determined photometrically 4-5 days after application.

Test [5] has as its system Botryotinia fuckeliana (Botrytis cinerea). The experiment in a line: Botryotinia fuckeliana liquid culture growth inhibition. The format is cell-based. The settings on record: photometric, 3-4 days after application, read-out: control on Botryotinia fuckeliana. The method, then:
Conidia of the fungus from cryogenic storage are directly mixed into nutrient broth (Vogels broth). After placing a (DMSO) solution of test compound into a microtiter plate (96-well format), the nutrient broth containing the fungal spores is added.

Test [6] deals with Thanatephorus cucumeris (Rhizoctonia solani). The experiment in a line: Thanatephorus cucumeris liquid culture growth inhibition. The format is cell-based. The settings on record: photometric, 3-4 days after application, read-out: control on Thanatephorus cucumeris. The method, then: Mycelia fragments of a newly grown liquid culture of the fungus are directly mixed into nutrient broth (PDB potato dextrose broth). After placing a (DMSO) solution of the test compounds into a microtiter plate (96-well format), the nutrient broth containing the fungal material is added. The test plates are incubated at 24° C. and the inhibition of growth is determined photometrically 3-4 days after application.

The test system of test [7] is Mycosphaerella arachidis (Cercospora arachidicola). The experiment in a line: Mycosphaerella arachidis liquid culture growth inhibition. The class given is cell-based. The settings on record: photometric, 4-5 days after application, read-out: control on Mycosphaerella arachidis. The method, then:
as §1

The subject of test [8] is Fusarium culmorum. The experiment in a line: Fusarium culmorum liquid culture growth inhibition. The format is cell-based. As to conditions: photometric, 3-4 days after application, read-out: control on Fusarium culmorum. The method, then:
Conidia of the fungus from cryogenic storage are directly mixed into nutrient broth (PDB potato dextrose broth). After placing a (DMSO) solution of test compound into a microtiter plate (96-well format), the nutrient broth containing the fungal spores is added. The test plates are incubated at 24° C. and the inhibition of growth is determined photometrically 3-4 days after application.

Test [9] has as its system Pythium ultimum. As to the kind of experiment: Pythium ultimum on Cotton/Pouch. As to conditions: Globisporangium ultimum, 168 h, cotton, pouch, 7 days at 17° C. The class given is in vivo. The source says:
A spore/mycelium suspension is pipetted into the pouch simultaneously.

The subject of test [10] is Alternaria solani. As to the kind of experiment: Alternaria solani on tomato plants. As to conditions: 4-week old tomato plants cv. Roter Gnom, spray, inoculated two days after application. The class given is in vivo. The method, then: 4-week old tomato plants cv. Roter Gnom are sprayed in a spray chamber with the formulated test compound diluted in water. The test plants are inoculated by spraying them with a spore suspension two days after application. The inoculated test plants are incubated at 22/18° C. (day/night) and 95% rh in a greenhouse and the percentage leaf area covered by disease is assessed when an appropriate level of disease appears on untreated check plants (5-7 days after application).

In the case of `NCCCCOB1OCc2cc(F)ccc21` [Compound 13, 4-(5-Fluoro-3H-benzo[c][1,2]oxaborol-1-yloxy)-butylamine], the pest or weed control (as a rule, the degree to which the test organism was suppressed or injured, in per cent) at 200 g/100 kg seeds in test [1] is ≥ 50%. Moreover, the inhibition of growth at 200 ppm in [2], in [3], in test [4], in test [5], in [6] and in [7] was ≥ 80% each time. Moreover, the inhibition of growth at 200 ppm in test [8] was ≥ 80%.
On to `OB1OCc2cc(F)ccc21` [Compound 8, 5-Fluoro-3H-benzo[c][1,2]oxaborol-1-ol], for which the pest or weed control at 200 g/100 kg seeds in [1] was ≥ 50%. Also, the inhibition of growth at 200 ppm in [2], in [3], in test [4], in [5], in test [6] and in test [7] was ≥ 80% each time. In addition, in test [8], the inhibition of growth at 200 ppm was ≥ 80%. In addition, the pest or weed control at 20 ppm in test [9] was ≥ 50%. Moreover, in test [10], the pest or weed control at 60 ppm was ≥ 60%.
Turning to `CCC(N)COB1OCc2cc(F)ccc21` (stereo not drawn) [Compound 30, 1-(5-Fluoro-3H-benzo[c][1,2]oxaborol-1-yloxymethyl)-propylamine], in test [1], the pest or weed control at 200 g/100 kg seeds is ≥ 50%. Moreover, the inhibition of growth at 200 ppm in test [2], in test [3], in [4], in [5], in [6] and in test [7] was ≥ 80% in each case. Also, the inhibition of growth at 200 ppm in test [8] is ≥ 80%.
Take `CNCCOB1OCc2cc(Cl)ccc21` [Compound 4, [2-(5-Chloro-3H-benzo[c][1,2]oxaborol-1-yloxy)-ethyl]-methyl-amine]: the inhibition of growth at 200 ppm in test [2], in [3], in [4], in test [5], in test [6] and in test [7] was ≥ 80% throughout. The inhibition of growth at 200 ppm in [8] is ≥ 80%. Also, the pest or weed control at 20 ppm in test [9] was ≥ 50%.
Turning to `CC(CN)OB1OCc2cc(Cl)ccc21` (stereo not drawn) [Compound 27, 2-(5-Chloro-3H-benzo[c][1,2]oxaborol-1-yloxy)-propylamine], the inhibition of growth at 200 ppm in test [2], in [3], in [4], in test [5], in test [6] and in test [7] was ≥ 80% throughout. The inhibition of growth at 200 ppm in test [8] is ≥ 80%. In test [10], the pest or weed control at 60 ppm is ≥ 60%.
Take `CCC(CN)OB1OCc2cc(Cl)ccc21` (stereo not drawn) [Compound 26, 2-(5-Chloro-3H-benzo[c][1,2]oxaborol-1-yloxy)-butylamine]: the pest or weed control at 200 g/100 kg seeds in test [1] is ≥ 50%. The inhibition of growth at 200 ppm in test [2], in test [3], in test [4], in test [5], in test [6] and in test [7] was ≥ 80% each time. Moreover, the inhibition of growth at 200 ppm in [8] was ≥ 80%.
Take `OB1OCc2ccccc21` [Compound 11, 3H-Benzo[c][1,2]oxaborol-1-ol]: the pest or weed control at 200 g/100 kg seeds in test [1] was ≥ 50%. The inhibition of growth at 200 ppm in test [2], in test [3], in test [5], in [7] and in test [8] was ≥ 80% throughout.
Turning to `OB1OCc2cc(Cl)ccc21` [Compound 1, 5-Chloro-3H-benzo[c][1,2]oxaborol-1-ol], the pest or weed control at 200 g/100 kg seeds in [1] is ≥ 50%. Further, the inhibition of growth at 200 ppm in test [2], in [3], in test [4], in test [5], in test [6] and in test [7] was ≥ 80% each time. In addition, in test [8], the inhibition of growth at 200 ppm is ≥ 80%. In test [9], the pest or weed control at 20 ppm was ≥ 50%. In test [10], the pest or weed control at 60 ppm is ≥ 60%.
`CC(N)COB1OCc2cc(Cl)ccc21` (stereo not drawn) [Compound 28, 2-(5-Chloro-3H-benzo[c][1,2]oxaborol-1-yloxy)-1-methyl-ethylamine]: the inhibition of growth at 200 ppm in [2], in test [3], in test [4], in test [5], in test [6] and in test [7] was ≥ 80% in each case. The inhibition of growth at 200 ppm in test [8] was ≥ 80%. The pest or weed control at 60 ppm in [10] is ≥ 60%.
As to `CCC(N)COB1OCc2cc(Cl)ccc21` (stereo not drawn) [Compound 2, 1-(5-Chloro-3H-benzo[c][1,2]oxaborol-1-yloxymethyl)-propylamine], in test [1], the pest or weed control at 200 g/100 kg seeds was ≥ 50%. Besides, the inhibition of growth at 200 ppm in test [2], in test [3], in test [4], in test [5], in test [6] and in [7] was ≥ 80% in each case. The inhibition of growth at 200 ppm in test [8] is ≥ 80%. The pest or weed control at 20 ppm in [9] is ≥ 50%. Also, in test [10], the pest or weed control at 60 ppm is ≥ 60%.
Take `NCCCOB1OCc2cc(F)ccc21` [Compound 12, 3-(5-Fluoro-3H-benzo[c][1,2]oxaborol-1-yloxy)-propylamine]: the pest or weed control at 200 g/100 kg seeds in test [1] was ≥ 50%. The inhibition of growth at 200 ppm in [2], in test [3], in test [4], in test [5], in [6] and in test [7] was ≥ 80% in each case. For the same compound, the inhibition of growth at 200 ppm in test [8] was ≥ 80%. The pest or weed control at 20 ppm in test [9] is ≥ 50%.
`NCCCCOB1OCc2cc(Cl)ccc21` [Compound 10, 4-(5-Chloro-3H-benzo[c][1,2]oxaborol-1-yloxy)-butylamine]: the pest or weed control at 200 g/100 kg seeds in [1] was ≥ 50%. Further, the inhibition of growth at 200 ppm in test [2], in test [3], in test [4], in [5], in test [6] and in test [7] was ≥ 80% throughout. In [8], the inhibition of growth at 200 ppm was ≥ 80%.
Take `NCC(=O)OB1OCc2cc(Cl)ccc21` [Compound 9, Amino-acetic acid 5-chloro-3H-benzo[c][1,2]oxaborol-1-yl ester]: the inhibition of growth at 200 ppm in [2], in [3], in test [4], in [5], in test [7] and in test [8] was ≥ 80% in each case. For the same compound, in [9], the pest or weed control at 20 ppm was ≥ 50%.
